Experimental data published in patent US20170190671A1, “BIS(ARYL)CATECHOL DERIVATIVES AS HERBICIDES” (E I DU PONT DE NEMOURS AND COMPANY, priority 2014, published 2017).

What was measured:
Assay in all cases: Test C postemergence
Type in all cases: in vivo
[1] = tested on: blackgrass (Alopecurus myosuroides); details: Alopecurus myosuroides, post-emergence, 336 h, Postemergence, scale 0 to 100, read-out: Plant response rating, Blackgrass
Method in brief: (§1)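 Seeds sown in a loam soil and sand blend were treated preemergence; plants in peat-moss/vermiculite medium were sprayed at the 1- to 4-leaf stage (2-18 cm). Chemicals were in a non-phytotoxic surfactant-containing solvent. After 13 to 15 days in a greenhouse, injury was visually rated against controls on a 0-100 scale.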

[2] = tested on: barnyardgrass (Echinochloa crus-galli); details: Echinochloa crus-galli, post-emergence, Postemergence, scale 0 to 100, read-out: Plant response rating, Barnyardgrass
Method in brief: as §1

[3] = tested on: johnsongrass (Sorghum halepense); details: Sorghum halepense, post-emergence, 336 h, Postemergence, scale 0 to 100, read-out: Plant response rating, Johnsongrass
Method in brief: as §1

[4] = tested on: pigweed (Amaranthus retroflexus); details: Amaranthus retroflexus, post-emergence, 336 h, Postemergence, scale 0 to 100, read-out: Plant response rating, Pigweed
Method in brief: as §1

[5] = tested on: yellow nutsedge (Cyperus esculentus); details: Cyperus, post-emergence, 336 h, Postemergence, scale 0 to 100, read-out: Plant response rating, Nutsedge, Yellow
Method in brief: as §1

[6] = tested on: large (Lg) crabgrass (Digitaria sanguinalis); details: Digitaria sanguinalis, post-emergence, 336 h, Postemergence, scale 0 to 100, read-out: Plant response rating, Crabgrass, Large
Method in brief: as §1

[7] = tested on: wild oat (Avena fatua); details: Avena fatua, post-emergence, Postemergence, scale 0 to 100, read-out: Plant response rating, Oat, Wild
Method in brief: as §1

[8] = tested on: oilseed rape (Brassica napus); details: Brassica napus, post-emergence, Postemergence, scale 0 to 100, read-out: Plant response rating, Oilseed Rape
Method in brief: as §1

[9] = tested on: giant foxtail (Setaria faberii); details: Setaria faberi, post-emergence, 336 h, Postemergence, scale 0 to 100, read-out: Plant response rating, Foxtail, Giant
Method in brief: as §1

[10] = tested on: Italian ryegrass (Lolium multiflorum); details: Lolium multiflorum, post-emergence, 336 h, Postemergence, scale 0 to 100, read-out: Plant response rating, Ryegrass, Italian
Method in brief: as §1

[11] = tested on: morningglory (Ipomoea coccinea); details: Ipomoea, post-emergence, 336 h, Postemergence, scale 0 to 100, read-out: Plant response rating, Morningglory
Method in brief: as §1

[12] = tested on: chickweed (common chickweed, Stellaria media); details: Stellaria media, post-emergence, Postemergence, scale 0 to 100, read-out: Plant response rating, Chickweed
Method in brief: as §1

[13] = tested on: velvetleaf (Abutilon theophrasti); details: Abutilon theophrasti, post-emergence, Postemergence, scale 0 to 100, read-out: Plant response rating, Velvetleaf
Method in brief: as §1

[14] = tested on: winter wheat (Triticum aestivum); details: Triticum aestivum, post-emergence, 336 h, Postemergence, scale 0 to 100, read-out: Plant response rating, Wheat
Method in brief: as §1

[15] = tested on: kochia (Kochia scoparia); details: Bassia scoparia, post-emergence, Postemergence, scale 0 to 100, read-out: Plant response rating, Kochia
Method in brief: as §1

Molecule Fc1cccc(Oc2ncc(Cl)cn2)c1Oc1ncc(Cl)cn1 [Compound 21, 2,2′-[[3-fluoro-1,2-phenylene]bis(oxy)]bis[5-chloropyrimidine]] has a pest or weed control at 16 g/ha ([1]; 16 g ai/ha) of 5%, a pest or weed control at 31 g/ha ([1]; 31 g ai/ha) of 5% and a pest or weed control at 62 g/ha ([1]; 62 g ai/ha) of 20%. The pest or weed control at 125 g/ha ([1]; 125 g ai/ha) was 70%, the pest or weed control at 16 g/ha ([2]; 16 g ai/ha) was 5% and the pest or weed control at 31 g/ha ([2]; 31 g ai/ha) was 5%. It also gave a pest or weed control at 62 g/ha ([2]; 62 g ai/ha) of 5%, a pest or weed control at 125 g/ha ([2]; 125 g ai/ha) of 5% and a pest or weed control at 16 g/ha ([3]; 16 g ai/ha) of 5%. It also gave a pest or weed control at 31 g/ha ([3]; 31 g ai/ha) of 5%, a pest or weed control at 62 g/ha ([3]; 62 g ai/ha) of 5% and a pest or weed control at 125 g/ha ([3]; 125 g ai/ha) of 5%. The pest or weed control at 31 g/ha ([4]; 31 g ai/ha) was 75%, the pest or weed control at 62 g/ha ([4]; 62 g ai/ha) was 85% and the pest or weed control at 125 g/ha ([4]; 125 g ai/ha) was 95%. The pest or weed control at 31 g/ha ([5]; 31 g ai/ha) was 5%, the pest or weed control at 62 g/ha ([5]; 62 g ai/ha) was 5% and the pest or weed control at 125 g/ha ([5]; 125 g ai/ha) was 5%. For the same molecule, the pest or weed control at 16 g/ha ([6]; 16 g ai/ha) was 5%, the pest or weed control at 31 g/ha ([6]; 31 g ai/ha) was 5% and the pest or weed control at 62 g/ha ([6]; 62 g ai/ha) was 5%. The pest or weed control at 125 g/ha ([6]; 125 g ai/ha) was 15%, the pest or weed control at 31 g/ha ([7]; 31 g ai/ha) was 0% and the pest or weed control at 62 g/ha ([7]; 62 g ai/ha) was 0%. The pest or weed control at 125 g/ha ([7]; 125 g ai/ha) was 40%, the plant injury at 31 g/ha ([8]; 31 g ai/ha) was 55% and the plant injury at 62 g/ha ([8]; 62 g ai/ha) was 60%. For the same molecule, the plant injury at 125 g/ha ([8]; 125 g ai/ha) was 80%, the pest or weed control at 16 g/ha ([9]; 16 g ai/ha) was 5% and the pest or weed control at 31 g/ha ([9]; 31 g ai/ha) was 5%. It also gave a pest or weed control at 62 g/ha ([9]; 62 g ai/ha) of 20%, a pest or weed control at 125 g/ha ([9]; 125 g ai/ha) of 20% and a pest or weed control at 31 g/ha ([10]; 31 g ai/ha) of 0%. For the same molecule, the pest or weed control at 62 g/ha ([10]; 62 g ai/ha) was 0%, the pest or weed control at 125 g/ha ([10]; 125 g ai/ha) was 25% and the pest or weed control at 31 g/ha ([11]; 31 g ai/ha) was 65%. The pest or weed control at 62 g/ha ([11]; 62 g ai/ha) was 70%, the pest or weed control at 125 g/ha ([11]; 125 g ai/ha) was 98% and the pest or weed control at 16 g/ha ([12]; 16 g ai/ha) was 50%. The pest or weed control at 31 g/ha ([12]; 31 g ai/ha) was 50%, the pest or weed control at 62 g/ha ([12]; 62 g ai/ha) was 60% and the pest or weed control at 125 g/ha ([12]; 125 g ai/ha) was 100%. For the same molecule, the pest or weed control at 31 g/ha ([13]; 31 g ai/ha) was 50%, the pest or weed control at 62 g/ha ([13]; 62 g ai/ha) was 65% and the pest or weed control at 125 g/ha ([13]; 125 g ai/ha) was 70%. It also gave a plant injury at 31 g/ha ([14]; 31 g ai/ha) of 0%, a plant injury at 62 g/ha ([14]; 62 g ai/ha) of 0% and a plant injury at 125 g/ha ([14]; 125 g ai/ha) of 5%. It also gave a pest or weed control at 16 g/ha ([15]; 16 g ai/ha) of 85%, a pest or weed control at 31 g/ha ([15]; 31 g ai/ha) of 90% and a pest or weed control at 62 g/ha ([15]; 62 g ai/ha) of 90%. For the same molecule, the pest or weed control at 125 g/ha ([15]; 125 g ai/ha) was 98%.
